≈ marks a conversion by molar mass, not a printed value. Values belong to the compound of their own block, whether it stands above or below them.
What was measured:
Type in all cases: physicochemical
[1] = Approximate solubility of starting material in 28 solvents at RT; settings: 25 °C, thermodynamic from solid, starting material Form A0
Protocol: Approximate solubility of starting material (Compound 1, Form A0) was determined in 28 solvents at RT (25±3° C.). ˜2 mg of the starting material was added into each 3-mL glass vial. Solvents were then added stepwise (50/50/200/700 μL per step) into the vials until the solids were dissolved visually or a total volume of 1 mL was reached. Solubility results summarized in Table 2 were used to guide the solvent selection in screening design.

[2] = Theoretical maxima water uptake of a monohydrate from the single crystal structure; settings: only lattice waters considered
Source text: A single crystal structure of Compound 1 Type A* family (form Type A0) was collected using crystals grown in ACN/H2O (1:3, v/v). Data were collected at 123 K using a Bruker D8 VENTURE diffractometer (Mo/Kα λ=0.71073 Å) with the following instrument parameters:
From the single crystal structure, there are four possible hydration sites in the unit cell. If each of the hydration sites is occupied by one water molecule, a monohydrate would be expected, which should correspond to the theoretical maxima water incorporation in the crystal lattice of Type A* family crystals. For a monohydrate, if only lattice waters are considered, the theoretical maxima water uptake is 3.9%, which is very close to the experimental DVS results (˜4.1-4.2% at 100% RH at 25° C.). In addition, there may be less than one water molecule on each hydration site because of the disorder, and a stoichiometry of less than 1:1 for water:API may be expected in an actual Type A* family crystal which is consistent with the almost linear increase/decrease of water content as a function of humidity in the DVS test.

[3] = Dynamic vapor sorption (DVS) test, water uptake and form stability as a function of relative humidity
Protocol: DVS test was performed using an SMS (Surface Measurement Systems) DVS Intrinsic instrument. The relative humidity were calibrated against deliquescence point of LiCl, Mg(NO3)2 and KCl. The following instrument parameters were used at 25° C. and 40° C.:
DVS test was performed for Type A* family to investigate its form stability as a function of relative humidity. The DVS test was first conducted in a couple of cycles with different ends (30% and 95% RH) at 25° C. The samples were equilibrated at each RH point until wt % change was lower than 0.002% or the total time reached 3 hrs.
The crystal forms after DVS test were detected by XRPD. For the cycle (ambient RH-95% RH-0% RH-30% RH), the crystal form after DVS test was determined to be Type A (FIG. 5), corresponding to the ambient humidity (61.5% RH) when performing XRPD analysis. While for the cycle (ambient RH-95% RH-0% RH-95% RH), Type A1 was observed after DVS test (FIG. 7), corresponding to the ambient humidity (66.3% RH) when performing XRPD analysis.
DVS test was also conducted in the cycle (ambient RH-95% RH-0% RH-95% RH) at 40° C.

- solubility ([1]; organic solvent or mixture, solvent 1,2-Dichloroethane, RT (25±3° C.)): > 38000 µg/mL
- solubility ([1]; organic solvent or mixture, solvent 1,4-Dioxane, RT (25±3° C.)): 2400 to 8000 µg/mL (≈ 5.23 to 17.4 mM)
- solubility ([1]; organic solvent or mixture, solvent 1-Propanol, RT (25±3° C.)): > 38000 µg/mL
- solubility ([1]; organic solvent or mixture, solvent 2-MeTHF, RT (25±3° C.)): 1800 to 6000 µg/mL (≈ 3.93 to 13.1 mM)
- solubility ([1]; organic solvent or mixture, solvent ACN, RT (25±3° C.)): 20000 to 40000 µg/mL (≈ 43.6 to 87.2 mM)
- solubility ([1]; organic solvent or mixture, solvent Acetone, RT (25±3° C.)): 19000 to 38000 µg/mL (≈ 41.4 to 82.9 mM)
- solubility ([1]; organic solvent or mixture, solvent Anisole, RT (25±3° C.)): 2000 to 6700 µg/mL (≈ 4.36 to 14.6 mM)
- solubility ([1]; organic solvent or mixture, solvent Butyl acetate, RT (25±3° C.)): < 2400 µg/mL
- solubility ([1]; organic solvent or mixture, solvent CHCl3, RT (25±3° C.)): > 40000 µg/mL
- solubility ([1]; organic solvent or mixture, solvent DCM, RT (25±3° C.)): > 40000 µg/mL
- solubility ([1]; organic solvent or mixture, solvent DMF, RT (25±3° C.)): > 38000 µg/mL
- solubility ([1]; organic solvent or mixture, solvent DMSO, RT (25±3° C.)): > 48000 µg/mL
- solubility ([1]; organic solvent or mixture, solvent Diethyleneglycol, RT (25±3° C.)): 2400 to 8000 µg/mL (≈ 5.23 to 17.4 mM)
- solubility ([1]; organic solvent or mixture, solvent Dimethoxyethane, RT (25±3° C.)): 6700 to 20000 µg/mL (≈ 14.6 to 43.6 mM)
- solubility ([1]; organic solvent or mixture, solvent EtOAc, RT (25±3° C.)): < 2000 µg/mL
- solubility ([1]; organic solvent or mixture, solvent EtOH, RT (25±3° C.)): > 46000 µg/mL
- solubility ([1]; organic solvent or mixture, solvent IPA, RT (25±3° C.)): 20000 to 40000 µg/mL (≈ 43.6 to 87.2 mM)
- solubility ([1]; organic solvent or mixture, solvent IPAc, RT (25±3° C.)): < 1900 µg/mL
- solubility ([1]; organic solvent or mixture, solvent MEK, RT (25±3° C.)): 7700 to 23000 µg/mL (≈ 16.8 to 50.2 mM)
- solubility ([1]; organic solvent or mixture, solvent MIBK, RT (25±3° C.)): < 2200 µg/mL
- solubility ([1]; organic solvent or mixture, solvent MTBE, RT (25±3° C.)): < 2200 µg/mL
- solubility ([1]; organic solvent or mixture, solvent MeOH, RT (25±3° C.)): > 44000 µg/mL
- solubility ([1]; organic solvent or mixture, solvent THF, RT (25±3° C.)): > 46000 µg/mL
- solubility ([1]; organic solvent or mixture, solvent Toluene, RT (25±3° C.)): < 2000 µg/mL
- solubility ([1]; organic solvent or mixture, solvent n-Butanol, RT (25±3° C.)): > 42000 µg/mL
- solubility ([1]; organic solvent or mixture, solvent n-Heptane, RT (25±3° C.)): < 1900 µg/mL
- solubility ([1]; organic solvent or mixture, solvent n-Hexane, RT (25±3° C.)): < 2200 µg/mL
- solubility ([1]; water, solvent H2O, RT (25±3° C.)): < 2400 µg/mL
SMILES: CNC(=O)c1cc(F)c(-c2nc3cc(C)ccn3c2C[C@H]2CN(C(=O)OC)CCO2)c(F)c1 [Compound 1, methyl (S)-2-((2-(2,6-difluoro-4-(methylcarbamoyl)phenyl)-7-methylimidazo[1,2-a]pyridin-3-yl)methyl)morpholine-4-carboxylate]

- theoretical maxima water uptake [2]: 3.9%
- crystal form after DVS test (XRPD) ([3]; 25° C., cycle ambient RH-95% RH-0% RH-30% RH, ambient humidity 61.5% RH at XRPD analysis): Type A
- crystal form after DVS test (XRPD) ([3]; 25° C., cycle ambient RH-95% RH-0% RH-95% RH, ambient humidity 66.3% RH at XRPD analysis): Type A1
- crystal form after DVS test (XRPD) ([3]; 40° C., cycle ambient RH-95% RH-0% RH-95% RH, ambient humidity 69.5% RH at XRPD test): Type A1
- water uptake, experimental DVS results ([3]; at 100% RH at 25° C.): 4.1-4.2%
SMILES: CNC(=O)c1cc(F)c(-c2nc3cc(C)ccn3c2C[C@H]2CN(C(=O)OC)CCO2)c(F)c1 [Type A* family, methyl (S)-2-((2-(2,6-difluoro-4-(methylcarbamoyl)phenyl)-7-methylimidazo[1,2-a]pyridin-3-yl)methyl)morpholine-4-carboxylate]

From patent publication US12637452B2, “Crystalline forms of a substituted imidazopyridine compound and use thereof as P2X3 modulator” (GlaxoSmithKline Intellectual Property (No. 3) Limited, priority 2018, dated 2026)
